Like-named read-outs stand apart in the source and are kept apart here.

The values below come from patent EP3623369A1, “NOVEL MORPHOLINYL AMINE COMPOUNDS FOR THE TREATMENT OF AUTOIMMUNE DISEASE” (F. Hoffmann-La Roche AG, priority 2018, dated 2020).

The target of data set [1] is T1, hTLR9 (Homo sapiens, UniProt Q9NR96).
T1 sequence (Q9NR96 26-1032): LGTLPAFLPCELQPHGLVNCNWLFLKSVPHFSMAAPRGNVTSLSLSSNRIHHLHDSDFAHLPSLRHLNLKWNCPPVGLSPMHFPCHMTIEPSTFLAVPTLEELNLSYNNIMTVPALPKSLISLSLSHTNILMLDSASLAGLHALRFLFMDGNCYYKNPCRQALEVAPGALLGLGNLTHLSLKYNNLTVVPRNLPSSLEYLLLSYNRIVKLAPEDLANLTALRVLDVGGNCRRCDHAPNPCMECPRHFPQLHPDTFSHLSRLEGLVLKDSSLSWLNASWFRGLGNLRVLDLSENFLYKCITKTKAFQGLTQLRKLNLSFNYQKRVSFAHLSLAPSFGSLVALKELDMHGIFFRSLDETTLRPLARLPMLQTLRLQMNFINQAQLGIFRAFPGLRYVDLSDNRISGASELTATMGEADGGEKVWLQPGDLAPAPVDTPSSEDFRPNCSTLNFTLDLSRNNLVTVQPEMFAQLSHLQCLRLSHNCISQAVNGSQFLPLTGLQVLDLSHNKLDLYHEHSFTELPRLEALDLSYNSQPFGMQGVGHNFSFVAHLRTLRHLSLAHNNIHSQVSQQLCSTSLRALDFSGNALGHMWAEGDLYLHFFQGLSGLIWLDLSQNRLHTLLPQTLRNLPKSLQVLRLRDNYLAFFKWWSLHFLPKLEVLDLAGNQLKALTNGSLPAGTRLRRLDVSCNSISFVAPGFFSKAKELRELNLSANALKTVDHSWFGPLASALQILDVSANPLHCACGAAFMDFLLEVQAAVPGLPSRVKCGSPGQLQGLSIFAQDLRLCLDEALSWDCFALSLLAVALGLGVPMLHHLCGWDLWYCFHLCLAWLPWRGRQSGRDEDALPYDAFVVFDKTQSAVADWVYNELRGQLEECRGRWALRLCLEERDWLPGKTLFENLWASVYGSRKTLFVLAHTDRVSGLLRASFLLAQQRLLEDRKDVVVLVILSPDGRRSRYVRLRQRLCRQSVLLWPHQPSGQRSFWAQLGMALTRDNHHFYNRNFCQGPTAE
The data set is described as follows: HEK293-Blue-hTLR-9 cells assay (SEAP reporter, ODN2006 stimulation). The data set is classed as cell-based. As to conditions: HEK293-Blue-hTLR9 cells, ODN2006, 20 hrs; 0.032 is the lowest tested concentration; read-out: HEK/hTLR9 IC50. The method in brief: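 HEK293-Blue cells with an NF-κB/AP-1-driven SEAP reporter were exposed to serially diluted compound (1% DMSO final) plus ODN2006 for 20 h at 37 °C. Supernatant SEAP was developed with QUANTI-Blue for 2 h at 37 °C and absorbance read at 620–655 nm; antagonism appears as reduced reporter signal.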

A short description of data set [2]: Human microsome stability assay. The data set is classed as in vitro ADME. As to conditions: human liver microsomes, 1 µM test compound, 0.5 mg/mL protein, 37°C, up to 30 minutes. Here is the method: Human microsome stability assay
The human microsomal stability assay is used for early assessment of metabolic stability of a test compound in human liver microsomes.
Human liver microsomes (Cat.NO.: 452117, Corning, USA;Cat.NO.:H2610, Xenotech, USA) were preincubated with test compound for 10 minutes at 37°C in 100 mM potassium phosphate buffer, pH 7.4. The reactions were initiated by adding NADPH regenerating system. The final incubation mixtures contained 1 µM test compound, 0.5 mg/mL liver microsomal protein, 1 mM MgCl2, 1 mM NADP, 1 unit/mL isocitric dehydrogenase and 6 mM isocitric acid in 100 mM potassium phosphate buffer, pH 7.4. After incubation times of 0, 3, 6, 9, 15 and 30 minutes at 37°C, 300 µL of cold acetonitrile (including internal standard) was added to 100 µL incubation mixture to terminate the reaction. Following precipitation and centrifugation, the amount of compound remaining in the samples were determined by LC-MS/MS. Controls of no NADPH regenerating system at zero and 30 minutes were also prepared and analyzed. […] Table 3. Human liver microsome stability of the compounds of present invention
(In general: Liver microsomes are vesicles of endoplasmic reticulum, rich in cytochrome P450 enzymes.)

Data set [3] deals with T1, hTLR9. On the set-up: host or cells: HEK. As to conditions: data disclosed in US20150105370; read-out: HEK/hTLR9 IC50; cited from earlier work.

`C[C@@H]1CN(c2ccc3c(c2)CN(C[C@H]2CN(c4ccc(C#N)c5ncccc45)C[C@@H](C)O2)C3)CCN1` [Example 62, 5-[(2R,6S)-2-methyl-6-[[5-[(3R)-3-methylpiperazin-1-yl]isoindolin-2-yl]methyl]morpholin-4-yl] quinoline-8-carbonitrile]: the IC50 at hTLR9 [1] is 62 nM. The “Clearance of Human microsome” value in data set [2] was determined as 6.39 mL/min/kg.

On to `C[C@@H]1CN(c2ccc(C#N)n3nccc23)C[C@H](CNCc2ccc(N3CCNCC3)cc2)O1` [Example 16, 4-[(2R,6S)-2-methyl-6-[[(4-piperazin-1-ylphenyl)methylamino]methyl]morpholin-4-yl]pyrazolo[1,5-a]pyridine-7-carbonitrile], for which the IC50 on hTLR9 [1] is 82 nM. The “Clearance of Human microsome” value in data set [2] is 7.31 mL/min/kg.

On to `C[C@@H]1CN(c2ccc(C#N)c3ncccc23)C[C@H](CN2CCc3cc(N4CCNCC4)ccc3C2)O1` [Example 19, 5-[(2R,6S)-2-methyl-6-[(6-piperazin-1-yl-3,4-dihydro-1H-isoquinolin-2-yl)methyl]morpholin-4-yl]quinoline-8-carbonitrile], for which, at hTLR9 [1], the IC50 was found to be 64 nM. The “Clearance of Human microsome” value in data set [2] was found to be 6.17 mL/min/kg.

As to `C[C@@H]1CN(c2ccc(C#N)c3ncccc23)C[C@H](CN2Cc3ccccc3C2)O1` [Example R3, 5-[(2S,6R)-2-(isoindolin-2-ylmethyl)-6-methyl-morpholin-4-yl]quinoline-8-carbonitrile, reference compound], on hTLR9 [1], the IC50 is 5540 nM. In data set [2], the “Clearance of Human microsome” value is 15.4 mL/min/kg.

In the case of `C[C@@H]1CN(c2ccc(C#N)c3ncccc23)C[C@H](CN2Cc3ccc(N4CC5(CCN5)C4)cc3C2)O1` [Example 55, 5-[(2S,6R)-2-[[5-(1,6-diazaspiro[3.3]heptan-6-yl)isoindolin-2-yl]methyl]-6-methyl-morpholin-4-yl]quinoline-8-carbonitrile], the IC50 at hTLR9 [1] was 84 nM. The “Clearance of Human microsome” value in data set [2] came out at 7.09 mL/min/kg.

On to `C[C@@H]1CN(c2ccc(C#N)c3ncccc23)C[C@H](CN2Cc3ccc(N4CCNCC4)cc3C2)O1` [Example 21, 5-[(2R,6S)-2-methyl-6-[(5-piperazin-1-ylisoindolin-2-yl)methyl]morpholin-4-yl]quinoline-8-carbonitrile], for which the IC50 on hTLR9 [1] amounted to 55 nM. The “Clearance of Human microsome” value in data set [2] was 6.15 mL/min/kg.

Take `C[C@@H]1CN(c2ccc(C#N)c3ncccc23)C[C@H](CNCc2ccccc2)O1` [ER-886509, reference compound]: the IC50 at hTLR9 [3] is 3940 nM; at hTLR9 [1], 2080 nM. The “Clearance of Human microsome” value in data set [2] turned out to be 15.2 mL/min/kg.

Take `C[C@@H]1CN(c2ccc(C#N)c3nccnc23)C[C@H](CNCc2ccc(N3CCNCC3)cc2)O1` [Example 84, 8-[(2R,6S)-2-methyl-6-[[(4-piperazin-1-ylphenyl)methylamino]methyl]morpholin-4-yl]quinoxaline-5-carbonitrile]: the IC50 at hTLR9 [1] came to 50 nM.

Regarding `CC1c2ccc(N3CCNCC3)cc2CN1C[C@H]1CN(c2ccc(C#N)c3ncccc23)C[C@@H](C)O1` (stereo partly drawn) [Example 48, 5-[(2R,6S)-2-methyl-6-[(1-methyl-5-piperazin-1-yl-isoindolin-2-yl)methyl]morpholin-4-yl]quinoline-8-carbonitrile], at hTLR9 [1], the IC50 was 105 nM.

For the compound `C[C@@H]1CN(c2ccc(C#N)n3nccc23)C[C@H](CN2Cc3ccc(N4CCN(C)CC4)cc3C2)O1` [Example 17, 4-[(2R,6S)-2-methyl-6-[[5-(4-methylpiperazin-1-yl)isoindolin-2-yl]methyl]morpholin-4-yl]pyrazolo[1,5-a]pyridine-7-carbonitrile], the IC50 at hTLR9 [1] is 48 nM.
